Results published in publication PMC11505670, “Four newly synthesized enones induce mitochondrial-mediated apoptosis and G2/M cell cycle arrest in colorectal and cervical cancer cells” (RSC Advances, 2024).

Experiments:
Type in all cases: cell-based, human
HeLa cells [1] = assay: MTT cytotoxicity assay, HeLa; conditions: for Selectivity index (SI): IC50 healthy cells (MRC-5)/IC50 tumor cells; for Cytotoxicity range: concentration range 1–100 μM; for IC50: Homo sapiens, MTT
Description: (§1) To examine and compare the antiproliferative activities of four enones, the cytotoxicity of the compounds was assessed by the 3-(4,5-dimethylthiazol-2-yl)-2,5-diphenyltetrazolium bromide (MTT) assay[9] in, colon cancer cells (HCT-116), cervical cancer cell line (HeLa) and human fibroblast lung cell line (MRC-5) that was used as a healthy control cell line. After trypsinization, seeded (5 × 10^3 cells per well in 96-well plates) cells were treated with different concentrations of the investigated enones (1, 3, 10, 30, and 100 μM) during 48 and 72 h period incubation period +37 °C and 5–6.5% CO2. After the incubation period, the medium was removed and MTT solution (5 mg ml^−1) was added to the wells.
(§2) After a 3 hour incubation with the MTT solution, the resulting formazan crystals were dissolved in DMSO (67-68-5, Merck). Absorbance was subsequently measured at 595 nm using a microplate reader (Zenith 3100, Anthos Labtech Instruments). The percentage of cytotoxic cells was determined using the formula: cytotoxicity (%) = (1 − (exp. group (ABS))/(control group (ABS)) × 100). IC50 values were calculated using GraphPad Prism 10 software. The selectivity index (SI) was determined using the formula: SI?IC50 value for healthy cells/IC50 value for tumor cells.[9]

HCT-116 cells [2] = assay: MTT cytotoxicity assay, HCT-116; conditions: for Cytotoxicity range: concentration range 1–100 μM; for Selectivity index (SI): IC50 healthy cells (MRC-5)/IC50 tumor cells; for IC50: Homo sapiens, MTT
Description: as §1, §2

MRC-5 cells = assay: MTT cytotoxicity assay, MRC-5 healthy control cells; conditions: Homo sapiens
Description: as §1, §2

HCT-116 cells [3] = assay: Annexin V-FITC/7-AAD apoptosis flow cytometry, HCT-116; conditions: IC50 concentration, 48 h
Description: (§3) The type of cell death was assessed using flow cytometry using FITC Annexin V Apoptosis Detection Kit with 7-AAD (640922, Bio legend).[8] […] After treatment, cells were harvested, washed with PBS (resuspended in 100 μl of ice-cold 1X binding buffer), stained (20 μl of 7-AAD and 10 μl of Annexin V-FITC), and incubated in the dark for 15 min at +4 °C. After incubation, 400 μl of binding buffer was added and the samples were analyzed using flow cytometer Cytomics FC500 (Beckman Coulter, USA). Data analysis was performed using FlowJo Software and presented with histogram and dot plots.

HeLa cells [4] = assay: Annexin V-FITC/7-AAD apoptosis flow cytometry, HeLa; conditions: IC50 concentration, 48 h
Description: as §3

[5] = tested on: Bax and Bcl-2 in HCT-116 cells; assay: Flow cytometric analysis of Bax and Bcl-2 expression, HCT-116; conditions: HCT-116, IC50 concentration, 48 h, from MFI
Description: (§4) Cells were washed with PBS, fixed, permeabilized using Fixation and Permeabilization Kit (eBioscience), and stained separately for Bcl-2, Bax, and cleaved-caspase-3.[8,9] Permeabilized cells were incubated with primary antibodies: mouse anti-human-Bcl-2 (DC21, sc-783, Santa Cruz Biotech. Inc.), mouse anti-human Bax (N20, sc-493, Santa Cruz Biotech. Inc.), and anti-cleaved caspase-3 (Cell signaling Technology 9661). Following antibody incubation, cells were washed and incubated with secondary Alexa 488-conjugated antibodies (ab185015, Abcam, United Kingdom) for 30 minutes. After an additional wash with PBS, flow cytometry analysis was performed.
(§5) Data were analyzed using FlowJo Software. The expression of Bcl-2 and Bax proteins was quantified as mean fluorescence intensity (MFI). The results were presented with bar graphs. Bax/Bcl-2 index was calculated using the formula […]. The percentage of cells expressing active caspase-3 (MFI) was presented in histograms.

[6] = tested on: Bax and Bcl-2 in HeLa cells; assay: Flow cytometric analysis of Bax and Bcl-2 expression, HeLa; conditions: IC50 concentration, 48 h
Description: as §4, §5

[7] = tested on: active caspase-3 in HCT-116 cells; assay: Flow cytometric analysis of active caspase-3, HCT-116; conditions: IC50 concentration, 48 h, vs control
Description: as §4, §5

[8] = tested on: active caspase-3 in HeLa cells; assay: Flow cytometric analysis of active caspase-3, HeLa; conditions: IC50 concentration, 48 h, vs control
Description: as §4, §5

[9] = tested on: mitochondrial membrane potential (ΔΨm) in HCT-116 cells; assay: Mitochondrial membrane potential (ΔΨm) JC-10 analysis, HCT-116; conditions: IC50 concentration, 48 h
Description: (§6) Changes in the ΔΨm caused by 48 hours of enones treatment, were assessed using JC-10 dye.[10]. (Enzo Life Sciences, Farmingdale, NY, USA).
(§7) In healthy cells, JC-10 dye accumulates in the mitochondria as red fluorescent aggregates. However, upon cell damage, changes in ΔΨm occur and result in dislocation of JC-10 from the mitochondria to the cytosol and the monomerization of aggregates, shifting fluorescence from red to green. Cells were cultured in 24-well plate (3 × 10^4 cells per well) overnight in the incubator (5% CO2, 37 °C). […] Following treatment, cells were washed with warm 1xPBS and incubated with JC-10 dye (2.5 μM in warm PBS) at 5% CO2, 37 °C for 20 minutes. Cells were then washed with 1xPBS and observed using an Olympus IX50 inverted fluorescence microscope. Images were captured and analyzed using ImageJ software. The ratio of fluorescence emissions at 525 and 590 nm was used for quantification analysis.

[10] = tested on: mitochondrial membrane potential (ΔΨm) in HeLa cells; assay: Mitochondrial membrane potential (ΔΨm) JC-10 analysis, HeLa; conditions: IC50 concentration, 48 h
Description: as §6, §7

[11] = tested on: cytochrome c in HCT-116 cells; assay: Cytochrome c localization by immunofluorescence, HCT-116; conditions: IC50 concentration, 48 h
Description: After 48 hours of treatment, immunofluorescence analysis of cytochrome c distribution and expression in treated cells was performed using glass coverslips.[10] Following the treatment, cells were washed with PBS, fixed in 4% formaldehyde for 20 min, and permeabilized with 0.2% Tween-20. Blocking was performed using a buffer containing 0.1% Tween-20 and 10% FBS for 30 min. The cells were then incubated for 1 hour at room temperature with a monoclonal mouse anti-human cytochrome c antibody (1:100, G7421, Promega, USA,)
Subsequently, the cells were incubated for 30 minutes with a goat anti-mouse FITC (1:200, diluted in blocking buffer), washed, and images were acquired using an inverted fluorescence microscope (Olympus IX50). Image analysis was performed using ImageJ software.

HCT-116 cells [12] = assay: Cell cycle analysis (PI, flow cytometry), HCT-116; conditions: IC50 concentration, 48 h; control 27.4%
Description: (§8) After treatment of HCT-116 and HeLa cells with enones, cells were harvested, washed with PBS, and fixed in 70% ice-cold ethanol at +4 °C overnight.[10] The cells were then pelleted, resuspended in 1 ml PBS containing RNAse A (12091021, Sigma Aldrich), and incubated for 30 min at 37 °C. A staining solution containing propidium iodide (1 mg PI per ml PBS) (B7758, Biotrend) was added to cells, followed by 15 min incubation in the dark. Cells were analyzed by flow cytometer Cytomics FC500. DNA content was determined using Flowing Software and cell cycle distribution was presented by graph (histograms).

HeLa cells [13] = assay: Cell cycle analysis (PI, flow cytometry), HeLa; conditions: IC50 concentration, 48 h; control 29.9%
Description: as §8

COc1cc(/C=C/C(=O)C(C)C)ccc1OCC(=O)O [E2, (E)-2-(2-Methoxy-4-(4-methyl-3-oxopent-1-en-1-yl)phenoxy)acetic acid]
Selectivity index (SI) (HeLa cells [1]; 48 h): 14.96
Cytotoxicity range (HeLa cells [1]; 48 h): 4.74–51.94%
Selectivity index (SI) (HeLa cells [1]; 72 h): 26.23
Cytotoxicity range (HeLa cells [1]; 72 h): 32.98–71.66%
IC50 (HeLa cells [1]; 48 h): 13.4 ± 1.43 µM
IC50 (HeLa cells [1]; 72 h): 3.43 ± 0.09 µM
percentage of cytotoxic HCT-116 cells compared to HeLa cells (fold) (HCT-116 cells [2]; 48 h, over the applied doses): 1.3–2.3 fold
percentage of cytotoxic HCT-116 cells compared to control MRC-5 cells (fold) (HCT-116 cells [2]; 48 h, over the applied doses): 2.9–5.2 fold
Cytotoxicity range (HCT-116 cells [2]; HCT-116, 48 h): 10.87–71.88%
Selectivity index (SI) (HCT-116 cells [2]; HCT-116, 48 h): 39.22
Cytotoxicity range (HCT-116 cells [2]; HCT-116, 72 h): 65.23–72.73%
Selectivity index (SI) (HCT-116 cells [2]; HCT-116, 72 h): 100.63
IC50 (HCT-116 cells [2]; HCT-116, 48 h): 5.1 ± 0.92 µM
IC50 (HCT-116 cells [2]; HCT-116, 72 h): 0.9 ± 0.02 µM
IC50 (MRC-5 cells; MRC5, MRC-5, 48 h): > 200 µM
IC50 (MRC-5 cells; MRC5, MRC-5, 72 h): > 90 µM
increase of percentage of apoptotic HCT-116 cells compared to control HCT-116 cells (HCT-116 cells [3]): 8.8 fold
percentage of total apoptotic HCT-116 cells (sum of early and late) (HCT-116 cells [3]): 61.6%
total percentage of apoptotic HeLa cells (HeLa cells [4]): 54.02%
Bax/Bcl-2 ratio [5]: 1.9
Bax/Bcl-2 ratio ([6]; from MFI): 1.4
Bcl-2 protein expression vs control cells ([6]; p < 0.05): decreased
MFI of active caspase-3 in HCT-116 (fold change) [7]: 2.4 fold change
MFI of active caspase-3 in HeLa (fold change) [8]: 2 fold change
JC10-green/JC10 red ratio in HCT-116 cells [9]: 2.15
JC10-green/JC10 red ratio in HeLa cells [10]: 1.9
RELATIVE RATIO OF CYTOSOL CYTC TO MITOCHONDRIAL CYT C IN HCT-116 CELLS [11]: 1.5
% OF HCT-116 CELLS, G2/M (HCT-116 cells [12]): 56.1%
% OF HELA CELLS, G2/M (HeLa cells [13]): 66%
